Data from ChEMBL document CHEMBL5360538, “Recent updates on 1,2,3-triazole-containing hybrids with in vivo therapeutic potential against cancers: A mini-review” (Eur J Med Chem, 2023).

What was measured:
B16-F10 = assay: Antitumor activity against mouse B16-F10 cells implanted in melanoma mouse model assessed as inhibition of tumor growth at 20 mg/kg, po relative to control; assay type: functional
KYSE-510 = assay: Potency index, ratio of 5-fluorouracil IC50 to test compound IC50 for antiproliferative activity against human KYSE-510 cells assessed as inhibition of cell growth incubated for 72 hrs by MTT assay; assay type: functional
KYSE-270 = assay: Potency index, ratio of 5-fluorouracil IC50 to test compound IC50 for antiproliferative activity against human KYSE-270 cells assessed as inhibition of cell growth incubated for 72 hrs by MTT assay; assay type: functional
KYSE-150 cell line [1] = assay: Potency index, ratio of 5-fluorouracil IC50 to test compound IC50 for antiproliferative activity against human KYSE-150 cells assessed as inhibition of cell growth incubated for 72 hrs by MTT assay; assay type: functional
ECa-109 cell line [2] = assay: Potency index, ratio of 5-fluorouracil IC50 to test compound IC50 for antiproliferative activity against human EC109 cells assessed as inhibition of cell growth incubated for 72 hrs by MTT assay; assay type: functional
ECa-109 cell line [3] = assay: Antitumor activity against human EC109 cells xenografted in BALB/c nude mouse model assessed as inhibition of tumor growth at 60 mg/kg, po relative to control; assay type: functional
KYSE-150 cell line [4] = assay: Antiproliferative activity against human KYSE-150 cells assessed as inhibition of cell growth incubated for 72 hrs by MTT assay; assay type: functional, cell-based; conditions: KYSE-150, 72 h, pooled result: one value given for 5 cell lines, strains, targets or settings
TE-1 = assay: Potency index, ratio of 5-fluorouracil IC50 to test compound IC50 for antiproliferative activity against human TE-1 cells assessed as inhibition of cell growth incubated for 72 hrs by MTT assay; assay type: functional
NCI-H1650 = assay: Antiproliferative activity against drug-sensitive human NCI-H1650 cells assessed as inhibition of cell growth incubated for 48 hrs by MTT assay; assay type: functional, cell-based; conditions: NCI-H1650, 48 h, pooled result: one value given for 9 cell lines, strains, targets or settings
KYSE-450 = assay: Antitumor activity against human KYSE-450 cells xenografted in nu/nu nude mouse model assessed as inhibition of tumor growth at 25 mg/kg, ip administered every day for 15 days relative to control; assay type: functional; conditions: KYSE-450, 360 h, time 15 day
SK-OV-3 = assay: Antiproliferative activity against human SK-OV-3 cells assessed as reduction in cell viability by MTT assay; assay type: functional, cell-based
OC-314 = assay: Antiproliferative activity against human OC-314 cells assessed as reduction in cell viability by MTT assay; assay type: functional, cell-based
Caov-3 cell line = assay: Antiproliferative activity against human Caov-3 cells assessed as reduction in cell viability by MTT assay; assay type: functional, cell-based
OVCAR-8 [5] = assay: Antitumor activity against human OVCAR-8 cells xenografted in nude mouse assessed as inhibition of tumor growth at 100 mg/kg, IG administered daily for 21 days relative to control; assay type: functional; conditions: OVCAR-8, po, 504 h, time 21 day
OVCAR-8 [6] = assay: Antiproliferative activity against human OVCAR-8 cells assessed as reduction in cell viability by MTT assay; assay type: functional, cell-based
MDA-MB-231 [7] = assay: Antiproliferative activity against human MDA-MB-231 cells assessed as inhibition of cell growth incubated for 48 hrs by MTT assay; assay type: functional, cell-based; conditions: MDA-MB-231, 48 h
Ehrlich = assay: Antitumor activity against mouse EAC cells implanted in Swiss albino mouse assessed as tumor growth inhibition at 5.0 mg/kg, ip administered alternate days for 10 days relative to control; assay type: functional; conditions: 240 h, time 10 day, read-out: TGI
MDA-MB-231 [8] = assay: Antiproliferative activity against human MDA-MB-231 cells assessed as reduction in cell viability by MTS assay; assay type: functional, cell-based
NCI-H211 = assay: Antiproliferative activity against human NCI-H211 cells assessed as reduction in cell viability by MTS assay; assay type: functional, cell-based
[9] = Inhibition of Rac activation in human MDA-MB-231 cells treated for 24 hrs by Western blot analysis; assay type: cell-based
MDA-MB-231 [10] = assay: Antiproliferative activity against human MDA-MB-231 cells assessed as inhibition of cell growth incubated for 120 hrs by MTT assay; assay type: functional
MDA-MB-435 [11] = assay: Antitumor activity against GFP tagged bone metastatic variant of human MDA-MB-435 cells xenografted in athymic nu/nu mouse assessed as reduction in tumor growth at 10 mg/kg, ip administered thrice a week for 65 days relative to control; assay type: functional; parameters: scale not given: the % may be the effect or the level left; conditions: time 65 day
MDA-MB-435 [12] = assay: Antitumor activity against GFP tagged bone metastatic variant of human MDA-MB-435 cells xenografted in athymic nu/nu mouse assessed as reduction in tumor growth at 1 mg/kg, ip administered thrice a week for 65 days relative to control; assay type: functional; parameters: scale not given: the % may be the effect or the level left; conditions: time 65 day
4T1 = assay: Antitumor activity against mouse 4T1 cells overexpressing IDO1 implanted in BALB/c mouse model assessed as inhibition of tumor growth at 25 mg/kg, ip qd administered every day for 8 consecutive days and measured after 14 days relative to control; assay type: functional; conditions: 4T1, 336 h, time 14 day
PC-9 = assay: Antitumor activity against human PC-9 cells xenografted in NSG mouse model assessed as inhibition of tumor growth at 25 mg/kg, ip qd administered every day for 7 consecutive days relative to control; assay type: functional; conditions: PC-9, 168 h, time 7 day
NCI-H460 = assay: Antiproliferative activity against human NCI-H460 cells assessed as inhibition of cell growth incubated for 48 hrs by MTT assay; assay type: functional, cell-based; conditions: NCI-H460, 48 h
A549 [13] = assay: Antiproliferative activity against human A549 cells assessed as inhibition of cell growth incubated for 48 hrs by MTT assay; assay type: functional, cell-based; conditions: A549, 48 h
A549 [14] = assay: Antitumor activity against human A549 cells xenografted in nude mouse model assessed as inhibition of tumor growth at 1.0 mg/kg, sc administered every three or four days for 4 weeks relative to control; assay type: functional; conditions: A549, 672 h
MCF7 = assay: Antiproliferative activity against human MCF7 cells assessed as inhibition of cell growth incubated for 48 hrs by MTT assay; assay type: functional, cell-based; conditions: MCF7, 48 h
LA7 [15] = assay: Antitumor activity against rat LA7 cells xenografted in mouse assessed as inhibition of tumor growth at 5 mg/kg, po administered daily for 21 days relative to control; assay type: functional; conditions: LA7, 504 h, time 21 day
LA7 [16] = assay: Antiproliferative activity against rat LA7 cells assessed as inhibition of cell growth incubated for 48 hrs by MTT assay; assay type: functional, cell-based; conditions: LA7, 48 h

C/C(=C(/Cl)c1ccccc1)c1nnc(-c2cn(CCCOc3ccc(C(C)(C)C)cc3)nn2)o1
inhibition in vivo at 20 mg/kg (B16-F10): 90%

COc1cnc(Cn2cc(CNC(=O)c3c(F)c(F)c(F)c(F)c3F)nn2)c(OC)c1
Ratio IC50 (KYSE-510): 3.1
Ratio IC50 (KYSE-270): 3.1
Ratio IC50 (KYSE-150 cell line [1]): 3.1
Ratio IC50 (ECa-109 cell line [2]): 3.1
inhibition in vivo at 60 mg/kg (ECa-109 cell line [3]): 60%
IC50 (KYSE-150 cell line [4]): 830 nM
Ratio IC50 (TE-1): 3.1

C#Cc1cccc(Nc2ncnc3cc4c(cc23)OCCOCCOCCO4)c1 [ICOTINIB]
IC50 (NCI-H1650): > 19.2 µM
inhibition in vivo at 25 mg/kg (KYSE-450): 15%

O=S(=O)(NCc1cn(Cc2cccc(Oc3ccccc3)c2)nn1)c1ccc(F)cc1
IC50 (SK-OV-3): 540 nM
IC50 (OC-314): 540 nM
IC50 (Caov-3 cell line): 540 nM
inhibition in vivo at 100 mg/kg (OVCAR-8 [5]): 61.8%
IC50 (OVCAR-8 [6]): 540 nM

NS(=O)(=O)NCCNC(=O)c1n[nH]nc1-c1ccc(F)c(F)c1
IC50 (MDA-MB-231 [7]): 77 nM
inhibition in vivo at 5 mg/kg (Ehrlich): > 80%

Cc1nnn(C)c1-c1cnc2c3cc4cnn(C)c4cc3n([C@H](c3ccccc3)C3CCOCC3)c2c1
IC50 (MDA-MB-231 [8]): 1.58 nM
IC50 (NCI-H211): 1.99 nM

CCn1c2ccccc2c2cc(-n3nncc3-c3ccccc3)ccc21 [MBQ-167]
IC50 [9]: 103 nM
GI50 (MDA-MB-231 [10]): 130 nM
Activity (MDA-MB-435 [11]): 95%
Activity (MDA-MB-435 [12]): 80%

C#Cc1cccc(Nc2ncnc3cc(OCCOC)c(OCCOC)cc23)c1 [ERLOTINIB]
inhibition in vivo at 25 mg/kg (4T1): 36%
inhibition in vivo at 25 mg/kg (PC-9): 90%

COc1ccc2c(c1)OCC(=O)N2Cc1cn(Cc2ccccc2)nn1
IC50 (NCI-H460): < 8 µM
IC50 (A549 [13]): < 8 µM
inhibition in vivo at 1 mg/kg (A549 [14]): 60%

O=C1/C(=C/c2ccccc2F)CN(Cc2cn(Cc3ccc(F)cc3)nn2)C/C1=C\c1ccccc1F
IC50 (MCF7): 2100 nM
inhibition in vivo at 5 mg/kg (LA7 [15]): 80%
IC50 (LA7 [16]): 3.1 µM
